# From patent US5344933A, “Pyrrole ring-or condensed pyrrole ring-containing azomethine dye” (Fuji Photo Film Co., Ltd., priority 1991, dated 1994)
# Tests used:
# Format in all cases: physicochemical
# [1] = Absorption characteristics of dyes in ethyl acetate; conditions: for absorption maxima wavelength (λmax): Example 1
# Text: The σp value of substituents in dyes of the present invention, the absorption maxima wavelength of these dyes in ethyl acetate and their half value widths are tabulated below.
# The absorption characteristics of Dyes 1, 2, 8, 12, 23, 101, 102, 104, 105, 106, 128, 129, 130, and 131 of the present invention in ethyl acetate are as shown in FIGS. 1 to 14. In these figures, the abbreviation "ABS" in the ordinate means the absorbance. The absorption maxima wavelength (λmax) in ethyl acetate and other physical properties of the dyes of the present invention are as follows: […]
# [2] = Heat fastness of dye images, 60° C. dry, 7 days (Example 2); conditions: Table 1, initial density 1.0, at λmax
# Method: (§1) The heat transfer image-receiving materials on which recording had been made were then irradiated with light from a 17,000 lux fluorescent lamp for 7 days to examine the stability of the dyes. The heat transfer image-receiving materials were also stored at a temperature of 60° C. under dry conditions for 7 days to examine the fastness of the dyes to heat. […] For the evaluation of stability, percentage of the measurements to the initial value (1.0) were determined. The measurement was effected at λmax.
# [3] = Light fastness of dye images, 17,000 lux fluorescent lamp, 7 days
# Method: as §1
# Heat transfer dye providing materials (3-1), (3-2), and (3-3) were prepared in the same manner as in Example 2 except that the polyvinyl butyral resin and dye to be incorporated in the heat transfer dye providing layer coating composition of Example 2 were replaced by the resins and dyes set forth in Table 3.
# (§2) Using the same image-receiving material as prepared in Example 2, printing was made on these heat transfer dye providing materials.
# Heat transfer dye providing materials (6-1), (6-2), and (6-3) were prepared in the same manner as in Example 2 except that the polyvinyl butyral resin and dye to be incorporated in the heat transfer dye providing layer coating composition of Example 2 were replaced by the resins and dyes set forth in Table 6.
# [4] = Heat fastness of dye images, 60° C. dry, 7 days, status A reflection density (Example 5); conditions: Table 4, status A reflection density 1.0
# Method: The heat transfer image-receiving materials on which recording had been made were stored at a temperature of 60° C. under dry conditions for 7 days to examine the fastness of the dyes to heat. […] For the evaluation of stability, percentage of the measurements to the initial value (1.0) were determined.
# as §2
# [5] = Table 1, 17,000 lux, 7 days, initial density 1.0, at λmax, polyvinyl butyral
compound,measurement,setting,value
CCOC(=O)c1c(C)n2c(nc1=O)C(C#N)=C(c1ccccc1)C2=Nc1ccc(N(CC)CCNS(C)(=O)=O)cc1C [Dye 1],absorption maxima wavelength (λmax),[1],697 nm
CCOC(=O)c1c(C)n2c(nc1=O)C(C#N)=C(c1ccccc1)C2=Nc1ccc(N(CC)CC)cc1 [Dye 2],Heat fastness (% remaining),[2],85%
same,absorption maxima wavelength (λmax),[1],685 nm
same,Light fastness (% remaining),[3]; [5],90%
same,Light fastness (% remaining),"[3]; Table 3, resin ethyl cellulose",91%
CCOC(=O)c1c(C)n2c(nc1=O)C(C#N)=C(c1ccccc1)C2=Nc1ccc(N(CC)CCOc2ccc(OC)cc2)cc1 [Dye 3],Heat fastness (% remaining),[2],86%
same,Light fastness (% remaining),[3]; [5],92%
CCOC(=O)c1c(C)n2c(nc1=O)C(C#N)=C(c1ccccc1)C2=Nc1ccc(N(CC)CC)cc1NC(=O)OC [Dye 4],Heat fastness (% remaining),[2],85%
same,Light fastness (% remaining),[3]; [5],91%
same,Light fastness (% remaining),"[3]; Table 3, resin cellulose acetobutyrate",92%
CCOC(=O)c1cn2c(nc1=O)C(C#N)=C(c1ccccc1)C2=Nc1ccc(N(CC)CC)cc1 [Dye 8],Heat fastness (% remaining),[2],99%
same,absorption maxima wavelength (λmax),[1],694 nm
same,Light fastness (% remaining),[3]; [5],91%
same,Light fastness (% remaining),"[3]; Table 3, resin polysulfone",91%
CCOC(=O)c1cn2c(nc1=O)C(C#N)=C(c1ccccc1)C2=Nc1ccc(N(CC)CCOc2ccc(OC)cc2)cc1 [Dye 10],Heat fastness (% remaining),[2],100%
same,Light fastness (% remaining),[3]; [5],93%
CCOC(=O)c1cn2c(nc1=O)C(C#N)=C(c1ccccc1)C2=Nc1ccc(N(CC)CC)cc1NC(=O)OC [Dye 12],Heat fastness (% remaining),[2],98%
same,absorption / hue (in words),[1],sufficient and sharp absorption in the vicinity of 700 nm and little or no absorption in the wavelength region of longer than 800 nm
same,absorption maxima wavelength (λmax),[1],698 nm
same,Light fastness (% remaining),[3]; [5],94%
CCOC(=O)c1cn2c(nc1=O)C(C#N)=C(C#N)C2=Nc1ccc(N(CC)CC)cc1NC(=O)N(C)C [Dye 16],Heat fastness (% remaining),[2],98%
same,Light fastness (% remaining),[3]; [5],93%
CCN(CC)c1ccc(N=C2C(C#N)=C(c3ccccc3)c3nc(=O)ccn32)c(NC(C)=O)c1 [Dye 17],Heat fastness (% remaining),[2],95%
same,Light fastness (% remaining),[3]; [5],91%
CCN(CC)c1ccc(N=C2C(c3ccccc3)=C(C#N)c3nc(=O)c4ccccc4n32)c(NC(C)=O)c1 [Dye 22],Heat fastness (% remaining),[2],85%
same,Light fastness (% remaining),[3]; [5],91%
CCCCCCCCCCCCCCCCCCOc1ccc(-c2cc(=O)n3c(n2)C(C#N)=C(c2ccccc2)C3=Nc2ccc(N(CC)CCNS(C)(=O)=O)cc2C)cc1 [Dye 23],absorption maxima wavelength (λmax),[1],658 nm
CCOC(=O)C1=C(C#N)C(=Nc2ccc(N(CC)CC)cc2)n2c1nc1ccccc1c2=O [Dye 29],Heat fastness (% remaining),[2],86%
same,Light fastness (% remaining),[3]; [5],90%
CCCCCCCCCCCCC(SC1=NC(=Nc2ccc(N(CC)CCNS(C)(=O)=O)cc2C)C(C#N)=C1C(=O)OCC)C(=O)OCC (stereo not drawn) [Dye 101],Half value width,[1],65 nm
same,absorption / hue (in words),[1],long absorption maxima wavelength
same,half value width (in words),[1],sufficiently small
same,absorption maxima wavelength (λmax),[1],660 nm
CCCCCCCCCCCCSC1=NC(=Nc2ccc(N(CC)CCNS(C)(=O)=O)cc2C)C(C#N)=C1C(=O)OCC [Dye 102],Half value width,[1],69 nm
same,absorption / hue (in words),[1],long absorption maxima wavelength
same,half value width (in words),[1],sufficiently small
same,absorption maxima wavelength (λmax),[1],655 nm
CCC(Oc1ccc(C(C)(C)CC)cc1C(C)(C)CC)C(=O)NC1=C(C#N)C(c2ccccc2)=NC1=Nc1ccc(N(CC)CCNS(C)(=O)=O)cc1C (stereo not drawn) [Dye 104],Half value width,[1],78 nm
same,absorption / hue (in words),[1],in a slightly short wavelength range but exhibit a cyan hue
same,half value width (in words),[1],large half value width
same,absorption maxima wavelength (λmax),[1],601 nm
CCOC(=O)C1=C(c2ccccc2)C(=Nc2ccc(N(CC)CCNS(C)(=O)=O)cc2C)N=C1Cl [Dye 105],Half value width,[1],82 nm
same,absorption / hue (in words),[1],in a slightly short wavelength range but exhibit a cyan hue
same,half value width (in words),[1],large half value width
same,absorption maxima wavelength (λmax),[1],582 nm
CCN(CCNS(C)(=O)=O)c1ccc(N=C2N=C(N)C(C#N)=C2C#N)c(C)c1 [Dye 106],Half value width,[1],79 nm
same,absorption maxima wavelength (λmax),[1],641 nm
CCN(CC)c1ccc(N=C2N=C(NC(=O)C(C)(C)C)C(C#N)=C2C#N)cc1 [Dye 113],Heat fastness (% remaining),[4],90%
same,Light fastness (% remaining),"[3]; Table 6, resin ethyl cellulose",91%
CCN(CC)c1ccc(N=C2N=C(c3ccccc3)C(C#N)=C2c2ccccc2)c(C)c1 [Dye 114],Heat fastness (% remaining),[4],91%
same,Light fastness (% remaining),"[3]; Table 6, resin cellulose acetobutyrate",93%
CCN(CCOc1ccc(OC)cc1)c1ccc(N=C2N=C(c3ccccc3)C(C#N)=C2NC(=O)C(C)(C)C)cc1 [Dye 115],Heat fastness (% remaining),[4],90%
same,Light fastness (% remaining),"[3]; Table 6, resin polysulfone",92%
CCN(CC)c1ccc(N=C2N=C(c3ccccc3NC(=O)C(C)(C)C)C(C#N)=C2c2ccccc2)cc1 [Dye 116],Heat fastness (% remaining),[4],89%
CCN(CC)c1ccc(N=C2N=C(c3ccccc3)C(C#N)=C2C(C)(C)C)c(NC(=O)N2CCOCC2)c1 [Dye 117],Heat fastness (% remaining),[4],94%
CCN(CC)c1ccc(N=C2N=C(c3ccccc3Cl)C(C(C)(C)C)=C2C#N)c(NC(=O)C(C)(C)C)c1 [Dye 118],Heat fastness (% remaining),[4],91%
CCN(CCC#N)c1ccc(N=C2N=C(NC(=O)C(C)(C)C)C(C#N)=C2C#N)cc1 [Dye 119],Heat fastness (% remaining),[4],90%
CCN(CCOc1ccc(C(=O)c2ccccc2)c(O)c1)c1ccc(N=C2N=C(c3ccccc3)C(C#N)=C2c2cccs2)cc1 [Dye 120],Heat fastness (% remaining),[4],98%
CCN(CCNS(C)(=O)=O)c1ccc(N=C2N=C(NC(C)=O)C(C#N)=C2C#N)c(C)c1 [Dye 128],Half value width,[1],64 nm
same,absorption / hue (in words),[1],long absorption maxima wavelength
same,half value width (in words),[1],sufficiently small
same,absorption maxima wavelength (λmax),[1],658 nm
CCN(CCNS(C)(=O)=O)c1ccc(N=C2N=C(NC(=O)Nc3ccccc3)C(C#N)=C2C#N)c(C)c1 [Dye 129],Half value width,[1],79 nm
same,absorption / hue (in words),[1],long absorption maxima wavelength
same,half value width (in words),[1],sufficiently small
same,absorption maxima wavelength (λmax),[1],677 nm
CCCCCCCCCCCCCCCCS(=O)(=O)Nc1ccc(Cl)c(NC(=O)NC2=NC(=Nc3ccc(N(CC)CCNS(C)(=O)=O)cc3)C(C(N)=O)=C2C(N)=O)c1 [Dye 130],Half value width,[1],120 nm
same,half value width (in words),[1],large half value width
same,absorption maxima wavelength (λmax),[1],639 nm
CCC(Oc1ccc(C(C)(C)CC)cc1C(C)(C)CC)C(=O)NC1=NC(=Nc2ccc(N(CC)CCNS(C)(=O)=O)cc2C)C(C(N)=O)=C1C(N)=O (stereo not drawn) [Dye 131],Half value width,[1],98 nm
same,half value width (in words),[1],large half value width
same,Absorption maxima,[1]; first table,629 nm
"CCC1=C(Cl)C(=O)C(NC(=O)c2ccco2)=CC1=Nc1ccc(N(CC)CC)cc1 [Dye a, reference compound]",Heat fastness (% remaining),[2],88%
same,Light fastness (% remaining),[3]; [5],87%
"CCN(CC)c1ccc(N=C2C=C(NC(=O)c3ccco3)C(=O)C(Cl)=C2C)cc1 [Dye b, reference compound]",Heat fastness (% remaining),[4],83%
